Experimental data as given in patent US20250345295A1, “LMK235 COMPOSITIONS AND METHODS” (UNM Rainforest Innovations, priority 2024, published 2025).
Where “and” joins values, the source holds several entries; their conditions need not be identical. Equal values may be shown once.

System: differentially expressed genes in TG
Experiment: RNAseq gene expression profiling of TG
Format: in vivo, mouse
Conditions: for Log2FC Ascl1 / Log2FC Klf2 / Log2FC Klf4 / Log2FC Klf5 / Log2FC Klf6 / Log2FC Klf7 / Log2FC Klf9 / Log2FC Klf13 / Log2FC Klf15 / Log2FC Klf16 / Log2FC L-Myc (Mycl) / Log2FC Lin28b / Log2FC Myt1l / Log2FC N-Myc (Mycn) / Log2FC Nanog / Log2FC NeuroD1 / Log2FC Sirt1 / Log2FC Sox2 / Log2FC Sox11 / Log2FC Stat3 / Log2FC c-Myc (Myc): TG
Protocol: Gene expression profiling was performed on TG from mice with/without nerve injury during the acute phase (three weeks post injury) in TIC mice and after transition to chronic pain (10 weeks post injury) in FRICT-ION mice by Quick Biology Inc. (Monrovia, CA).
Total RNA from ipsilateral TG was isolated using the Rneasy Mini Kit (Qiagen, Valencia, CA). Gene expression profiling and analysis with RNA was done by Quick Biology Inc. (Monrovia, CA). RNAseq library preparation was performed by Quick Biology Inc. (Monrovia, CA), sequencing was performed using an Illumina HiSeq 4000 at 40 million reads per sample. The reads were first mapped to the latest UCSC transcript set using Bowtie2 version 2.1.0 and the gene expression level was estimated using RSEM v1.2.15. Differentially expressed genes were identified using the edgeR program. Genes showing altered expression with p<0.05 were considered differentially expressed.

[1] = TG RNAseq, LMK235-treated vs untreated FRICT-ION mice
[2] = TG RNAseq, male FRICT-ION mice treated with LMK235 vs Vehicle, week 10
[3] = TG RNAseq, male FRICT-ION mice treated with LMK235 vs naive, week 10
[4] = LMK235 Treated FRICT-ION versus Naive
[5] = LMK235 Treated FRICT-ION versus Untreated FRICT-ION

## Cc1cc(C)cc(C(=O)NOCCCCCC(=O)NO)c1 [LMK235, N-[[6-(Hydroxyamino)-6-oxohexyl]oxy]-3,5-dimethyl-benzamide]
[1]
  Nav3 downregulated, fold: 1.19 fold
  Net1 upregulated, fold: 1.12 fold
  Neurod4 upregulated, fold: 1.57 fold
  Nf2 upregulated, fold: 1.04 fold
  Ngef downregulated, fold: 1.34 fold
  Nkain2 downregulated, fold: 1.14 fold
  Nova1 upregulated, fold: 1.04 fold
  Nras downregulated, fold: 1.03 fold
  Nrg2 upregulated, fold: 1.10 fold
  Nrg3 downregulated, fold: 1.00 fold
  Ntrk1 upregulated, fold: 1.80 fold
  Nts downregulated, fold: 1.74 fold
  Scn2a Scn2a1 downregulated, fold: 1.04 fold
  Scn3a downregulated, fold: 1.01 fold
  Scn7a downregulated, fold: 1.07 fold
  Scn8a upregulated, fold: 1.05 fold
  Scn9a upregulated, fold: 1.29 fold
  Trpc6 upregulated, fold: 1.08 fold
  Trpm3 upregulated, fold: 1.19 fold
  Trpm4 upregulated, fold: 1.05 fold
  Trpv6 downregulated, fold: 1.19 fold
[2]
  Fold change 1700047I17Rik2: 3.82 fold
  Fold change 8430408G22Rik: 2.46 fold
  Fold change Acta2: 2.01 fold
  Fold change Amy2a5: 2.03 fold
  Fold change Armc3: 2.04 fold
  Fold change Asb4: 1.53 fold
  Fold change C1ql2: 2.34 fold
  Fold change C1ql4: 4.76 fold
  Fold change Calcb: 2.17 fold
  Fold change Ccdc153: 2.32 fold
  Fold change Cckbr: −2.32 fold
  Fold change Crhbp: 2.79 fold
  Fold change Cutal: 2.10 fold
  Fold change Cyp26b1: 2.99 fold
  Fold change Cytl1: 2.14 fold
  Fold change Dmrt3: 2.46 fold
  Fold change Eif3j2: 3.88 fold
  Fold change Evi2a-evi2b: 136.10 fold
  Fold change Fev: 2.35 fold
  Fold change Gata3: 3.74 fold
  Fold change Gh: −25.22 fold
  Fold change Gm833: 2.45 fold
  Fold change Gm8221: 241.23 fold
  Fold change Gm13306: 48.23 fold
  Fold change Gpx2: 3.17 fold
  Fold change Gucy2f: 2.13 fold
  Fold change H19: 2.05 fold
  Fold change Hdac5: −2.03 fold
  Fold change Hist2h3c2: 128.58 fold
  Fold change Hoxb9: −16.50 fold and −16.5 fold
  Fold change Hoxc8: −8.22 fold
  Fold change Hoxd8: −4.14 fold
  Fold change Irx4: 2.51 fold
  Fold change Isl1: 2.30 fold
  Fold change Kcnmb1: 2.15 fold
  Fold change Mgl2: 2.39 fold
  Fold change Myom1: 2.01 fold
  Fold change Nkx6-3: 2.10 fold
  Fold change Onecut3: 2.22 fold
  Fold change P2rx2: −1.84 fold
  Fold change P2rx4: −2.08 fold
  Fold change Pappa2: 2.16 fold
  Fold change Pde4c: 2.45 fold
  Fold change Ppp1r1c: 2.51 fold
  Fold change Sec16b: 1.98 fold
  Fold change Serpina3h: 2.51 fold
  Fold change Shox2: 2.49 fold
  Fold change Slc6a4: 4.38 fold
  Fold change Slc18a2: 2.01 fold
  Fold change Slfn4: −2.32 fold
  Fold change Sp8: 2.42 fold
  Fold change Tmprss11d: 2.98 fold
  Fold change Tph2: 4.18 fold
  Fold change Tyrp1: 3.03 fold
  Fold change Vmn2r84: 2.71 fold
  Fold change lc6a2: 2.91 fold
  Gh downregulated, fold: 25.22 fold
  Hoxb9 downregulated, fold: 16.50 fold
  Hoxc8 downregulated, fold: 8.22 fold
  Hoxd8 downregulated, fold: 4.14 fold
  P2rx4 downregulated, fold: 2.08 fold
  Slfn4 downregulated, fold: 2.32 fold
[3]
  Fold change 1500015O10Rik: 4.68 fold
  Fold change 4833423E24Rik: 2.10 fold
  Fold change Ache: −1.12 fold
  Fold change Ackr4: 3.74 fold
  Fold change Aqp1: 7.41 fold and 7.4 fold
  Fold change Calml4: 2.88 fold
  Fold change Car12: 6.21 fold
  Fold change Ccdc135: 2.84 fold
  Fold change Cldn1: 2.48 fold
  Fold change Cldn2: 8.46 fold
  Fold change Col8a2: 3.06 fold
  Fold change Crhr2: 2.35 fold
  Fold change Enpp2: 2.22 fold
  Fold change F5: 6.19 fold
  Fold change Fap: 3.16 fold
  Fold change Folr1: 11.92 fold and 11.91 fold
  Fold change Gmnc: 2.40 fold
  Fold change Gvin1: 5.55 fold
  Fold change Hdac5: −1.13 fold
  Fold change Hdac10: −1.20 fold
  Fold change Igfbpl1: 2.39 fold
  Fold change Il1a: 2.21 fold
  Fold change Inmt: 6.34 fold
  Fold change Kcne2: 17.29 fold
  Fold change Kcnj13: 7.84 fold
  Fold change Kl: 5.00 fold
  Fold change Krt18: 6.56 fold
  Fold change Lbp: 3.97 fold
  Fold change Lum: 2.08 fold
  Fold change Mfrp: 4.30 fold
  Fold change Otx2: 5.17 fold
  Fold change Postn: 2.24 fold
  Fold change Prr32: 5.41 fold
  Fold change Rbm14-rbm4: 66.16 fold
  Fold change Slc4a5: 4.83 fold
  Fold change Sostdc1: 15.70 fold
  Fold change Tgtp1: 2.49 fold
  Fold change Tmem72: 6.47 fold
  Fold change Tmprss11a: 37.90 fold
  Fold change Tnfsf13: 2.14 fold
  Fold change Ttr: 23.21 fold
  Fold change Wfdc2: 4.61 fold
[4]
  Log2FC Ascl1: 1.16 Log2FC
  Log2FC Klf2: −1.57 Log2FC
  Log2FC Klf4: −1.23 Log2FC
  Log2FC Klf5: 1.25 Log2FC
  Log2FC Klf6: 1.03 Log2FC
  Log2FC Klf7: 1.12 Log2FC
  Log2FC Klf9: −1.03 Log2FC
  Log2FC Klf13: −1.16 Log2FC
  Log2FC Klf15: −1.26 Log2FC
  Log2FC Klf16: −1.08 Log2FC
  Log2FC L-Myc (Mycl): 1.08 Log2FC
  Log2FC Lin28b: −1.13 Log2FC
  Log2FC Myt1l: 1.03 Log2FC
  Log2FC N-Myc (Mycn): 1.63 Log2FC
  Log2FC Nanog: 1.01 Log2FC
  Log2FC NeuroD1: 1.26 Log2FC
  Log2FC Sirt1: 1.17 Log2FC
  Log2FC Sox2: 1.25 Log2FC
  Log2FC Sox11: 1.05 Log2FC
  Log2FC Stat3: −1.00 Log2FC
  Log2FC c-Myc (Myc): 1.14 Log2FC
[5]
  Log2FC Ascl1: 1.05 Log2FC
  Log2FC Klf2: 1.20 Log2FC
  Log2FC Klf4: 1.13 Log2FC
  Log2FC Klf5: −1.30 Log2FC
  Log2FC Klf6: 1.05 Log2FC
  Log2FC Klf7: 1.15 Log2FC
  Log2FC Klf9: −1.05 Log2FC
  Log2FC Klf13: −1.17 Log2FC
  Log2FC Klf15: −1.16 Log2FC
  Log2FC Klf16: −1.24 Log2FC
  Log2FC L-Myc (Mycl): −1.54 Log2FC
  Log2FC Lin28b: 1.07 Log2FC
  Log2FC Myt1l: −1.17 Log2FC
  Log2FC N-Myc (Mycn): 1.00 Log2FC
  Log2FC Nanog: −1.03 Log2FC
  Log2FC NeuroD1: 1.21 Log2FC
  Log2FC Sirt1: 1.02 Log2FC
  Log2FC Sox2: 1.07 Log2FC
  Log2FC Sox11: −1.21 Log2FC
  Log2FC Stat3: −1.04 Log2FC
  Log2FC c-Myc (Myc): −1.03 Log2FC
